Experimental data as given in PubChem BioAssay AID1117345.
Calls of active or inactive are those of the source. How the calls were made is not given here.

Tested on: STC-1 cells GLP-1 secretion
Experiment: dose-response assay, glucagon-like peptide-1 release in STC-1 line, potency as half-maximal inhibitory concentration (AID 1117345)

SMILES	IC50
CCCCCCCCCCCC(=O)[O][Sn]([CH2]CCC)([CH2]CCC)[O]C(=O)CCCCCCCCCCC	> 40000 nM (inactive)
CC(=O)[O][Hg][c]1ccccc1	713 nM
CCCCCCCCCCCCCC[N+](C)(C)C	> 40000 nM (inactive)
Cc1ccc([N+](=O)[O-])[c]2c1[O][Hg]2	97.2 nM
OCCN1CCN(CC/C=C2/c3ccccc3Sc3ccc(C(F)(F)F)cc32)CC1	> 40000 nM (inactive)
